{"source": "patent US20160151503A1", "about": "“COMPOSITIONS AND PREPARATION METHODS OF LOW MELTING IONIC SALTS OF POORLY-WATER SOLUBLE DRUGS” (MW ENCAP LIMITED, priority 2013, published 2016)", "key": {"[1]": {"assay": "Drug solubility in exemplar lipid formulations (SEDDS) and individual excipients", "procedure": "Where lipid based formulations have been employed, formulations were made up in glass vials by weighing the appropriate quantities of excipient directly into the vial, followed by mixing\nIn some cases the solubility of the low melting ionic salt in individual excipients was also measured.\nDrug solubility in each formulation was assessed in one of two ways. Firstly, quantitatively, by incubating formulations with excess drug at 37 degrees and taking samples over time. These samples were centrifuged to pellet solid material and the drug concentration in the formulation assessed by HPLC."}, "[2]": {"assay": "In vitro dispersion and digestion of cinnarizine decylsulfate SEDDS solution in simulated intestinal fluid", "type": "in vitro ADME", "conditions": "after in vitro dispersion or digestion of SEDDS solution in SIF"}, "[3]": {"assay": "Equilibrium solubility in colloids formed by in vitro digestion of blank SEDDS in simulated intestinal fluid", "type": "physicochemical", "conditions": "colloids from 60 min digestion of blank LC2 SEDDS (1 g in 39 mL SIF), pH 6.5, 37° C.", "protocol": "In this experiment blank SEDDS formulation (1 g) was dispersed in 39 mL of simulated intestinal fluid. (SIF) (2 mM Tris-maleate, 1.4 mM CaCl2.H2O, 150 mM NaCl, 3 mM NaTDC, 0.75 mM PC, pH 6.5, 37° C.) and pancreatic enzymes added to stimulate digestion. The experiment was conducted at 37° C. and allowed to continue for 60 mins. […] From the data in Table 5.3 below it is apparent that synthesis of the IL increases drug affinity for intestinal colloidal phases and therefore increases solubilisation in the GI tract—consistent with the increases in exposure seen in FIG. 3"}, "[4]": {"assay": "Itraconazole plasma pharmacokinetics after oral administration of comparative formulations to rats", "type": "in vivo", "conditions": "same equivalent dose of ITZ FB, solution in SEDDS", "protocol": "Note that the very low solubility of ITZ free base precludes formulation as a lipid based formulation. It is only via isolation as the IL that this possibility is realised since the solubility of the ITZ IL in lipid formulations is very much higher. All were dosed at the same dose (20 mg/kg).\nThe isolation of ITZ as the docusate IL increased drug solubility in the SEDDS formulation and allowed administration as a Solution in the SEDDS formulation. […] ITZ FB was not sufficiently soluble in the SEDDS formulation to allow administration as a solution in the SEDDS at any reasonable dose and was therefore dosed as a suspension in the SEDDS formulation and also as an aqueous suspension. The same dose was administered as the commercial Sporanox formulation of ITZ FB\nIt is apparent that the ITZ IL formulation allowed administration of a much higher ITZ dose as a solution in a lipid based formulation and that this in turn led to much higher plasma levels than the equivalent suspension formulation of the free base, or the commercial Sporanox formulation."}, "[5]": {"conditions": "SEDDS: 15% soybean oil, 15% Maisine 35-1, 60% Cremophor EL, 10% EtOH"}, "[6]": {"conditions": "Table 8 Meclofenamic Acid, MC SEDDS"}, "[7]": {"conditions": "Table 7 Tolfenamic Acid, MC SEDDS"}}, "note": "Where a name gives a salt, the structure may show the parent alone.", "data": [{"smiles": "C(=C/c1ccccc1)/CN1CCN(C(c2ccccc2)c2ccccc2)CC1", "note": "[Cinnadzine free base, Cinnarizine, reference compound]", "values": [{"measurement": "cinnarizine solubility in the lipid vehicle", "setting": "[1]; [5]", "result": "approximately 44 mg/g"}]}, {"smiles": "C(=C\\c1ccccc1)/CN1CCN(C(c2ccccc2)c2ccccc2)CC1", "note": "[Cinnarizine-decylsulfate, Cinnarizine Decylsulfate]", "values": [{"measurement": "miscibility with the SEDDS formulation", "setting": "[1]; [5]", "result": "essentially miscible"}, {"measurement": "incorporated drug remaining solubilized in an aqueous phase", "setting": "[2]", "result": "more than 95%"}]}, {"smiles": "COc1ccc2c(c1)[C@]13CCCC[C@@H]1[C@H](C2)N(C)CC3", "note": "[Dextromethorphan, reference compound]", "values": [{"measurement": "Solubility in MC SEDDS (mg/g) Free base equiv.", "setting": "[1]; Table 5 Dextromethorphan and Metformin, MC SEDDS", "result": "<50", "unit": "mg/g"}]}, {"smiles": "CCC(C)n1ncn(-c2ccc(N3CCN(c4ccc(OCC5COC(Cn6cncn6)(c6ccc(Cl)cc6Cl)O5)cc4)CC3)cc2)c1=O", "note": "(stereo not shown) [Itraconazole free base, Itraconazole, reference compound]", "values": [{"measurement": "Solubility in simulated intestinal fluid plus lipid digestion products", "setting": "[3]; listed as ITZ FB", "result": "<47", "unit": "µg/mL"}]}, {"smiles": "CCC(C)n1ncn(-c2ccc(N3CCN(c4ccc(OCC5COC(Cn6cncn6)(c6ccc(Cl)cc6Cl)O5)cc4)CC3)cc2)c1=O", "note": "(stereo not shown) [Itraconazole- diocytlsulfosuccinate, Itraconazole Dioctylsulfosuccinate (Docusate)]", "values": [{"measurement": "Solubility in simulated intestinal fluid plus lipid digestion products", "setting": "[3]; listed as ITZ-docusate IL", "result": "1720 ± 150", "unit": "µg/mL"}, {"measurement": "Solubility in LC^2 SEDDS (mg/g) itraconazole equiv.", "setting": "[1]; LC2 SEDDS: 30% SBO, 30% Maisine, 30% CrEL, 10% EtOH", "result": 159.8, "unit": "mg/g"}, {"measurement": "plasma levels compared to the commercial formulation", "setting": "[4]", "result": "~2.5", "unit": "fold"}]}, {"smiles": "Cc1ccc(Cl)c(Nc2ccccc2C(=O)O)c1Cl", "note": "[Meclofenamic acid, 1- hexadecyl-3- methylpyridinium salt] [Meclofenamic Acid, 1-hexadecyl-3-methylpyridinium Salt]", "values": [{"measurement": "Solubility in MC^2 SEDDS (mg/g) Free base equiv.", "setting": "[1]; [6]", "result": ">240", "unit": "mg/g"}]}, {"smiles": "Cc1ccc(Cl)c(Nc2ccccc2C(=O)O)c1Cl", "note": "[Meclofenamic acid, N-decyl-N,N- dimethyldodecylammonium salt] [Meclofenamic Acid, N-decyl-N,N-dimethyldodecylammonium Salt]", "values": [{"measurement": "Solubility in MC^2 SEDDS (mg/g) Free base equiv.", "setting": "[1]; [6]", "result": ">240", "unit": "mg/g"}]}, {"smiles": "Cc1c(Cl)cccc1Nc1ccccc1C(=O)O", "note": "[Tolfenamic acid dodecylammonium salt, Tolfenamic Acid, Dodecylammonium Salt]", "values": [{"measurement": "Solubility in MC^2 SEDDS (mg/g) Free base equiv.", "setting": "[1]; [7]", "result": ">50", "unit": "mg/g"}]}, {"smiles": "Cc1c(Cl)cccc1Nc1ccccc1C(=O)O", "note": "[Tolfenamic acid, N-butyl- N,N-dimethylbutyl-N- dodecylammoni] [Tolfenamic Acid, N-butyl-N,N-dimethylbutyl-N-dodecylammonium Salt]", "values": [{"measurement": "Solubility in MC^2 SEDDS (mg/g) Free base equiv.", "setting": "[1]; [7]", "result": ">200", "unit": "mg/g"}]}, {"smiles": "Cc1c(Cl)cccc1Nc1ccccc1C(=O)O", "note": "[Tolfenamic acid, N-decyl-N,N- dimethyldodecylammonium salt] [Tolfenamic Acid, N-decyl-N,N-dimethyldodecylammonium Salt]", "values": [{"measurement": "Solubility in MC^2 SEDDS (mg/g) Free base equiv.", "setting": "[1]; [7]", "result": ">200", "unit": "mg/g"}]}]}
